Like-named read-outs stand apart in the source and are kept apart here.
System: mucous membrane (HET-CAM)
Assay: Mucous membrane compatibility, in vitro HET-CAM test, reaction time method
Procedure: Mucous membrane compatibility was evaluated by the in vitro HET-CAM test using the reaction time method (conc. 5% in 2×-distilled water, pH=6).

[1] = conc. 5% in 2×-distilled water, pH=6

Evaluation	Substance	Irritation value Q	Evaluation [1]	Irritation value Q [1]
Moderately	Sodium Laureth Sulfate [Texapon ASV]	1.0	–	–
–	mono-C12-glycerol ether carboxylic acid [Example 1]	–	Slightly irritating	0.76
–	mono-C12-glycerol ether+4EO ether carboxylic acid [Example 2]	0.00	–	–

Reference: patent publication US20050020854A1, “Alkyl(en)ylglycerinether carboxylic acids” (priority 2001, published 2005)
